Data: patent publication US10458988B2, “Biotinylated luminescent probe” (priority 2017, dated 2019)

Legend:
firefly luciferase = target: T1, firefly luciferase (Photinus pyralis, UniProt P08659); assay: Bioluminescence spectrum of probe B-YL with firefly luciferase; format: biochemical
T1 construct: purchased Sigma
Protocol: After the synthesis of the biotinylated probe, B-YL, the probe can be evaluated with a commercially available firefly luciferase. […] The mechanism for generating bioluminescence is shown in Scheme 2.
In a well of 96 quartz plate (500 μl), HEPES buffer (30 mM) solution (400 μl, pH=7.7) containing MgSO4 (5.0 mM), ATP (2.6 mM), DTT (3.5 mM), CoA (1.5 mM) and commercially available firefly luciferase (40 μg/ml), was prepared. The probe B-YL was then added and mixed to a final concentration (32 μM). Bioluminescence spectrum of B-YL was then taken immediately with instrument SynergyMx (BioTek, VT).

U87-luc cells = assay: Bioluminescence imaging of luciferase-transfected brain cancer cells in vitro; format: cell-based; conditions: B-YL 100 μg/mL, L-15 medium with MgCl2 5 mM
Protocol: (§1) Triplicate wells were plated with increasing numbers of either U87 cells without luciferase (a) or with luciferase (b). In each plate: Row 1, wells 1-3, no cells; wells 4-6, 1,875 cells per well. Row 2, wells 1-3, 3,750 cells per well; wells 4-6, 7,500 cells per well. Row 3, wells 1-3, 15,000 cells per well; wells 4-6, 30,000 cells per well. Row 4, wells 1-3, 60,000 cells per well. Incubation buffer, Leibovitz's L-15 medium with MgCl2 (5 mM). Each well was incubated with B-YL (100 μg/mL). Plates were imaged using an IVIS 200 In vivo Imaging System. Escalating luminescence was observed only in wells containing luciferase-expressing cells (b).
(§2) The B-YL substrate can be incubated with the brain cancer cell line U87-luc, which was derived from the parental brain cancer cell line U87 after stable transfection with a luciferase gene. […] B-YL clearly adsorbed across the cell membrane and was oxidized by luciferase. Therefore, B-YL can be used for the detection of the cancer cells by bioluminescence.
(§3) The EGF-B-SA-B-YL complex can be tested for the ability to target and image brain cancer cell lines that overexpress the biomarker EGFR using bioluminescence in vitro. U87 (gray hatch bars) and U87-luc (black bars) cells can be treated with free B-YL (150 μg/m L), untargeted B-SA-B-YL complex (150 μg/mL) or EGFR-targeted EGF-B-SA-B-YL complex (50-150 µg/mL). Bioluminescence were detected immediately. […]

U87 cells = assay: Bioluminescence imaging of parental brain cancer cells without luciferase in vitro; format: cell-based
Protocol: as §1, §2, §3

T1 sequence (P08659 whole entry): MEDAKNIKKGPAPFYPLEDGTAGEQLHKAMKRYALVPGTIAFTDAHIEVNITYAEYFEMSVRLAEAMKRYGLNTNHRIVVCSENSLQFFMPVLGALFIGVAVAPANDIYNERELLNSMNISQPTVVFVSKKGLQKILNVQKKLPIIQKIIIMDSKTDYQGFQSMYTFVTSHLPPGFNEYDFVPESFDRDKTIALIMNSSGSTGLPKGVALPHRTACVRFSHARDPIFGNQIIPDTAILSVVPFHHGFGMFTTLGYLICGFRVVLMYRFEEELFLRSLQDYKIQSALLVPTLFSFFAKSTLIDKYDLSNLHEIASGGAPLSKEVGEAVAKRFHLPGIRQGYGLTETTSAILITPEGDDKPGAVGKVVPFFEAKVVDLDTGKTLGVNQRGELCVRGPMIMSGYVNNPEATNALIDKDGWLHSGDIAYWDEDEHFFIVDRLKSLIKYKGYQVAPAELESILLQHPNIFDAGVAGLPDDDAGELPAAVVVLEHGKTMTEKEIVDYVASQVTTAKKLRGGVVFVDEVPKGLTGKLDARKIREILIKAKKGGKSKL

6-(3-N—{N-[5-(Hexahydro-2-oxo-1H-thieno[3,4-d]imidazol-4-yl)-1-oxopentyl]-, [3aS-(3aα,4β, 6aα)]}-aminoethyl-poly(ethylene glycol)21-oxyethyl-1H-1,2,3-triazol-5-yl-methylamino-oxomethyl-amino)-2-benzothiazolyl]-4,5-dihydro-,(4S)-4-thiazolecarboxylic acid [B-YL]
substrate of firefly luciferase (firefly luciferase; commercial firefly luciferase): found to be a substrate of firefly luciferase
bioluminescence maximum emission (firefly luciferase; commercial firefly luciferase 40 μg/ml, B-YL 32 μM, HEPES buffer pH 7.7): 590 nm
number of U87-luc cells at which bioluminescence signal was detected (FIG. 1b) (U87-luc cells): at least 7,500 cells per well
bioluminescence activity in parental U87 cells (FIG. 1a) (U87 cells; B-YL 100 μg/mL, 0-60,000 cells per well, L-15 medium with MgCl2 5 mM): did not reveal bioluminescence activity regardless of the number of cells
conversion to bioluminescence photons by U87 cells (FIG. 2) (U87 cells; U87 cells without luciferase): Neither of the complexes (B-SA-B-YL or EGF-B-SA-B-YL) nor free B-YL were converted to bioluminescence photons
